Laboratory results reported in publication PMC12592502, “Unraveling the mechanisms behind the enhanced efficacy of β-lactam-based sideromycins” (Communications Biology, 2025).

Key:
Experiment in all cases: Membrane PBP binding assay, competition with Bocillin FL
PBP1a = PBP1a (Acinetobacter baumannii, UniProt A0ABX6CK30); conditions: A. baumannii ATCC 19606 membranes
Description: (§1) Membrane extracts containing PBPs were obtained as described above. Briefly, all species were grown in 1 L of TSB until the OD600 reached 0.9. The washed pellet was incubated with lysozyme (400 μg/mL), DNase (10 μg/mL) RNase(10 μg/mL) and anti-protease cocktail (200 mg/20 mL). Lysis was done with a French press (20,000 psi) and membrane protein were pelleted by ultracentrifugation steps (100,000 × g). The pellet was suspended in a minimal volume (300–500 μL) of KP 0.05 M buffer at pH 7. The protein concentration in the membrane preparations was determined with the Micro BCA TM Protein Assay Kit (Thermo Fisher Scientific, Rockford, IL) using bovine serum albumin as a standard.
(§2) The PBP binding assay was done as described previously[36],[56],[57]. For each antibiotic concentration tested, a quantity of 25 to 40 μg of membrane preparation was used as the source of PBPs, depending on the species. For the purified PaPBP3, 150 ng was used in the assay. First, increasing concentrations of the test antibiotic was added to the membrane or purified PaPBP3 preparations and incubated for 10 min at 30 °C. The reporter molecule Bocillin FL was then added at 12.5 μM for the membrane PBPs preparations and at 500 nM for the pure PaPBP3 samples for an additional 20 min at 30 °C. All reactions were stopped with the addition of the Laemmli-loading buffer (Bio-Rad) containing fresh β-mercaptoethanol (Sigma). All reactions were then heated at 100°C for 3 min before migration on SDS-polyacrylamide discontinuous gel system (7.5% stacking and 10% separating). Control samples without Bocillin FL were also included to highlight autofluorescent proteins that are not PBPs.
(§3) To be able to visualize labeled PBPs after electrophoresis, gels were rinsed in water and fixed in a solution of 50% methanol and 7% acetic acid for 30 min. The fluorescent images of gels were obtained with the Typhoon FLA 9500 instrument (GE-Healthcare Bio-Sciences Inc., Baie-d’Urfé, QC, CA) using a 473 nm excitation wavelength. To obtain quantifiable data, the software Quantity One 1D analysis was used (version 4.6.6; Bio-Rad Laboratories, Richmond, CA). The volume (intensity × constant area) of each PBP was measured. […] All IC50 data were obtained from at least two independent PBP binding assays using two different sets of compound concentrations using a linear regression. The PBP profiles were confirmed, and the PBP numbering were determined using published data and individual molecular weights. […] For example, amdinocillin (Sigma) was used for PBP2 identification. […] The IC50 for PBP 2 of P. aeruginosa was measured by including the SDS-PAGE comigrating autofluorescent protein in the background, as done previously.

PBP1b [1] = target: PBP1b (Acinetobacter baumannii, UniProt A0ABX6CHI7); conditions: A. baumannii ATCC 19606 membranes
Description: as §1, §2, §3

PBP1b [2] = target: PBP1b (Pseudomonas aeruginosa, UniProt G3XD31); conditions: P. aeruginosa ATCC 27853 membranes
PBP1b (Pseudomonas aeruginosa, UniProt G3XD31), sequence (G3XD31 entry or part of it): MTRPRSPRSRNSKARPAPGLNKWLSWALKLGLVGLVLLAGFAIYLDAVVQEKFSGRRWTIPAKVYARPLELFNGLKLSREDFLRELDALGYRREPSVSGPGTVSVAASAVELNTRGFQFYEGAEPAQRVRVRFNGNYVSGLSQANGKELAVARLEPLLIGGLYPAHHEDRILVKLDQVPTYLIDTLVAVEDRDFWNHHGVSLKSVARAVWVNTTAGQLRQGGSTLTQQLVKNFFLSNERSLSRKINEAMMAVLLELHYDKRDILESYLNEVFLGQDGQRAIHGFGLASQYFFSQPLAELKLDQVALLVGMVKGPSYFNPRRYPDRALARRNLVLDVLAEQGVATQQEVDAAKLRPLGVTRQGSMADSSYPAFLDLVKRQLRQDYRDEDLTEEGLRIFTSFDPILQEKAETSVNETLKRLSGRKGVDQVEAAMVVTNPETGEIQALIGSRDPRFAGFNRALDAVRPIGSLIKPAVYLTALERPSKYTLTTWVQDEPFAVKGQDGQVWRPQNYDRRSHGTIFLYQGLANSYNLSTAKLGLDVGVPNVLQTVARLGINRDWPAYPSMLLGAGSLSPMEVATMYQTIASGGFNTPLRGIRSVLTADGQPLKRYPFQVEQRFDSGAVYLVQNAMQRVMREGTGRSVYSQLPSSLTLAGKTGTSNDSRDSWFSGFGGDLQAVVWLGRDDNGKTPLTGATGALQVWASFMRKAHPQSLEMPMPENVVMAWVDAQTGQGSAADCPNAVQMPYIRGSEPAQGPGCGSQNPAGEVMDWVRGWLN
Description: as §1, §2, §3

PBP3 [3] = target: PBP3 (Acinetobacter baumannii, UniProt A0ABX6CK25); conditions: A. baumannii ATCC 19606 membranes
PBP3 (Acinetobacter baumannii, UniProt A0ABX6CK25), sequence (A0ABX6CK25 1-610): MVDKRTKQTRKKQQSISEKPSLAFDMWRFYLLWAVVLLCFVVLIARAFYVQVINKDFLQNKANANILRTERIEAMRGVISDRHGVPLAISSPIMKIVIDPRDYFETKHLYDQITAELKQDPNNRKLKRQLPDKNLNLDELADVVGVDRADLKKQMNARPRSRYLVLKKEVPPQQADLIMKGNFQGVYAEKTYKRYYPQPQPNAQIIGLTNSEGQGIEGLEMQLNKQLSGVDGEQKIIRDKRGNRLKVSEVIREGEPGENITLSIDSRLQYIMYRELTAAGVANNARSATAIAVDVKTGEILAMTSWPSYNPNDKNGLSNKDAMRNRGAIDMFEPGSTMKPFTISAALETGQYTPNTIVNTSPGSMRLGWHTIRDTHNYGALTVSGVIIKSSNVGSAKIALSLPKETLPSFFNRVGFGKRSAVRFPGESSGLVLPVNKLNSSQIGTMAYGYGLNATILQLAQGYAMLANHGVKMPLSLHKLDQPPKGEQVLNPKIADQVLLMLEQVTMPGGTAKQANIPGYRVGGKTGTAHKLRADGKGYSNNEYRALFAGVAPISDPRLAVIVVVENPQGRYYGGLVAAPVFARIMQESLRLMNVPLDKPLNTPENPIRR
Description: as §1, §2, §3

PBP3 [4] = target: PBP3 (Klebsiella pneumoniae, UniProt A0A0H3GN85); conditions: K. pneumoniae ATCC 13883 membranes
PBP3 (Klebsiella pneumoniae, UniProt A0A0H3GN85), sequence (A0A0H3GN85 entry or part of it): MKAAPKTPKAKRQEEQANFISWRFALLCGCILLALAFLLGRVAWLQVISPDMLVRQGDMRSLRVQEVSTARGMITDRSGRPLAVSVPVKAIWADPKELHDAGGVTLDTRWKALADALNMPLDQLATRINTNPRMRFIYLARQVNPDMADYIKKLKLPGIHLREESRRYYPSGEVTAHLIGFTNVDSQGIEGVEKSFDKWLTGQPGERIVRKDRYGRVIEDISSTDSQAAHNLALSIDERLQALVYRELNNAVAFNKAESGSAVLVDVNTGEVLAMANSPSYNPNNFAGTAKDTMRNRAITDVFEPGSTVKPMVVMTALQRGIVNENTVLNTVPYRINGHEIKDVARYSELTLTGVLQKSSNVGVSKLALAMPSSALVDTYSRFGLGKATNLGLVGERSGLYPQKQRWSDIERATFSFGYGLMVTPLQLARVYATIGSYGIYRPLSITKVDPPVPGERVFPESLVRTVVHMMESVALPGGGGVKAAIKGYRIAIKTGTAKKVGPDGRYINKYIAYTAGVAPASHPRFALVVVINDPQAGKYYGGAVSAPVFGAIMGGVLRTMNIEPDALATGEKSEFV
Description: as §1, §2, §3

PBP4 = PBP4 (Klebsiella pneumoniae, UniProt A0ACD7U7I2); conditions: K. pneumoniae ATCC 13883 membranes
Description: as §1, §2, §3

PBP5 = PBP5 (Pseudomonas aeruginosa, UniProt G3XD74); conditions: P. aeruginosa ATCC 27853 membranes
PBP5, sequence (G3XD74 entry or part of it): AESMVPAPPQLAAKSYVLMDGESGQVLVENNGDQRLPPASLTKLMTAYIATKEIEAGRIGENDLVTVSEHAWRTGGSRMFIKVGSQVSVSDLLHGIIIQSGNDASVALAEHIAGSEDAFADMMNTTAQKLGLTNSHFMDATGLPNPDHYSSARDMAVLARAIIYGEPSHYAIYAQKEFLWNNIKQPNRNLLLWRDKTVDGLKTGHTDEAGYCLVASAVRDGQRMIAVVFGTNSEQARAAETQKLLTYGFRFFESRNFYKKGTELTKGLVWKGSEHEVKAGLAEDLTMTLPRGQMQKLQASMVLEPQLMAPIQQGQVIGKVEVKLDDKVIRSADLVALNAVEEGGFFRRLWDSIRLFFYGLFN
Description: as §1, §2, §3

PBP1a, sequence (A0ABX6CK30 entry or part of it): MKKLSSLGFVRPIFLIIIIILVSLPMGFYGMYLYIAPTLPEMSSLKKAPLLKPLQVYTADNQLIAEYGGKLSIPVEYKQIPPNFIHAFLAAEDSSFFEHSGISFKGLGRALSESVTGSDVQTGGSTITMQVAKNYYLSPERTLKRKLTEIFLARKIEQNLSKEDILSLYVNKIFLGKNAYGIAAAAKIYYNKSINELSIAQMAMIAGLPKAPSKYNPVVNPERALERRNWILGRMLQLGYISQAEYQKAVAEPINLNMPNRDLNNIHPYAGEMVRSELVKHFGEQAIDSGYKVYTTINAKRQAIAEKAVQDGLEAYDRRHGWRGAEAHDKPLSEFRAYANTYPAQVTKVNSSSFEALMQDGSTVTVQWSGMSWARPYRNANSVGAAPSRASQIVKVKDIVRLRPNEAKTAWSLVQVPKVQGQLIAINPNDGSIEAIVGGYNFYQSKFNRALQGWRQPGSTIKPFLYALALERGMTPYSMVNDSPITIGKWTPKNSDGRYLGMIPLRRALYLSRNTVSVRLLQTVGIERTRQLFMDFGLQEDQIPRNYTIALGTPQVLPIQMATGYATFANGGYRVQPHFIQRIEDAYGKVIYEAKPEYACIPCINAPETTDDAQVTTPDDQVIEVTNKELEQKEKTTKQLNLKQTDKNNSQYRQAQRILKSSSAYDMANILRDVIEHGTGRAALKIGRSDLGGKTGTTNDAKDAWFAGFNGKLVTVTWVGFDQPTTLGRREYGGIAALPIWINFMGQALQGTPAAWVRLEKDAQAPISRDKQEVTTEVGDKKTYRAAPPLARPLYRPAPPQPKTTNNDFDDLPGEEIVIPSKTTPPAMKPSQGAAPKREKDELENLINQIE

In the case of `N[C@@H](C(=O)N[C@@H]1C(=O)N2C(C(=O)O)=C(Cl)CC[C@H]12)c1ccccc1` [LOR, loracarbef, reference compound], the IC50 (PBP1a) is reported as > 50 µM, the IC50 (PBP1b [1]) is reported as > 50 µM and the IC50 (PBP1b [2]) is reported as 1.8 ± 0.5 µM. It also gave an IC50 (PBP3 [3]) of 7.8 ± 0.8 µM, an IC50 (PBP3 [4]) of 4.1 ± 2.4 µM and an IC50 (PBP4) of 1.03 ± 0.72 µM. For the same molecule, the IC50 (PBP5) was > 50 µM.
